The values that follow come from PMC10597491 (PLOS ONE, 2023).

The nature of series [1]: Plasma stability in vitro, cynomolgus plasma. Also noted: dose or concentration left out as unconfirmed. The following applies: cynomolgus monkey, 37°C, incubated in duplicate, intact peptide by LC/MS/MS, read-out: t1/2 in cynomolgus plasma (converted). It is filed as in vitro ADME. From the text: (§1) Affinity maturation of these initial families produced ligands with improved affinities; and combinations of these ligands (one each for IL-7Rα and γc) were joined into heterodimers in a variety of orientations (i.e., joined by N-termini, C-termini, or N-to-C termini), with several connection chemistries, for testing as IL-7R agonists in cell-based assays. The lead peptide agonist for detailed characterization, as described here, is a fusion of peptides MDK1248 and MDK1188, joined with a short intervening linker to form the single-chain peptide MDK1472. The peptides were analyzed for sequence similarity to IL-7, and none was found.
(§2) Supplementary file pone.0286834.s001.pptx: S1 Fig Plasma stability of MDK 1472 in vitro. […] MDK1472 or control peptide YGGFL incubated in duplicate in human or cynomolgus plasma at 37°C. At indicated time points, compounds were isolated from the plasma and the quantity of intact peptides measured by LC/MS/MS (Study performed by Quintara Discovery, Hayward, CA). (PPTX) Click here for additional data file.

Series [2] can be described thus: Plasma stability in vitro, human plasma. Format: in vitro ADME. The following applies: 37°C, incubated in duplicate, intact peptide by LC/MS/MS, read-out: t1/2 in human plasma (converted). More on the design: dose or concentration left out as unconfirmed.
Description: as §1, §2

For series [3], the target named is T1, cynomolgus IL-7Rα (Macaca fascicularis, UniProt Q38IC7).
T1 construct: cynomolgus IL-7Rα(aa 21–235)-His6, Sino Biological Cat# 90332-C08H; His6 (C); purchased Sino Biological 90332-C08H
T1 sequence (Q38IC7 21-235): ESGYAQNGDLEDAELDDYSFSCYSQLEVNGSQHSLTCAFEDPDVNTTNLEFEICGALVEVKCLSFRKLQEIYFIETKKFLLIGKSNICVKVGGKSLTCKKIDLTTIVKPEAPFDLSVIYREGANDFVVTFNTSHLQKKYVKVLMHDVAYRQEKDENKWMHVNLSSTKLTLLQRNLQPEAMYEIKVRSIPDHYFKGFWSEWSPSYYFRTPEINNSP
The experiment in a line: Competition binding ELISA, cynomolgus IL-7Rα ECD. The following applies: immobilized cynomolgus IL-7Rα-His6 ECD; biotinylated peptide/NA-HRP tracer; read-out: Competition ELISA IC50, IL-7Rα Cyno. From the text:
(A, B) Determination of IC50 values in a competition ELISA for compound binding to human and cyno IL-7Rα and γc. The assay format is IL-7Rα-(His)6-tagged ECD or Fc-γc ECD immobilized on 96-well plates. Tracers are C-terminal biotinylated forms of the reference IL-7Rα and γc peptide ligands, each pre-complexed with Neutravidin-HRP (NA-HRP). (C, D) Label-free measurement of the equilibrium dissociation constant (KD) for peptide binding to IL-7Rα and γc extracellular domains with peptides was performed by biolayer interferometry as detailed in methods. Red lines depict 1:1 binding fit from Gator™ software. Blue lines represent individual BLI sensogram data taken every 0.1 seconds.
Binding was determined using a competition binding ELISA. Microtiter plates (Immulon 4HBX flat bottom 96-well) were coated with 50 μL of […] human ECDs: IL-7Rα(aa 21–236)-His6, Sino Biological Cat# 10975-H08H; cynomolgus IL-7Rα(aa 21–235)-His6, Sino Biological Cat# 90332-C08H; human IL-2Rα(aa 23–254)-Fc, Acro Cat# ILG-H5256; cynomolgus IL-2Rα(aa 23–254)-Fc, made in-house, in PBS overnight at 4°C. […] Plates were washed with cold wash buffer, and bound tracer was detected using TMB One Component HRP substrate and Stop Solution (Surmodics Cat# TMBW-1000-01 and LSTP-0100-01). Absorbance at 450 nm was read using Agilent BioTek Synergy HTX Multimode Reader.

The test system of series [4] is human PBMCs. The experiment in a line: pSTAT5 flow cytometry in human PBMC subsets. It is filed as cell-based. An excerpt:
(§3) Frozen PBMCs from 5 healthy human donors (A, B) and cynomolgus monkey (C) were rested (A, C) or activated with anti-CD3/CD28 (B). Cells were stained for viability, followed by cell surface antibody staining on ice. […] After washing, cells were fixed, permeabilized, stained with anti-pSTAT5 antibody, and analyzed immediately by flow cytometry. The mean fluorescence intensity (MFI) of pSTAT5 detection was shown as mean ± SEM. […] Flow cytometry gating data shown in S2 Fig.
(§4) To detect phopho-STAT5 in immune subsets of PBMCs by flow cytometry, frozen human and cynomolgus macaques PBMCs (Stemcell Technologies, Cat# 70025.2 and iQ Biosciences, Cat# IQB-MnPB102, respectively) from 5 different healthy donors were thawed and rested overnight in T-cell media (CTS™ OpTmizer™ T-Cell Expansion SFM, ThermoFisher Scientific Cat# A1048501) at 37°C. Cells were stained with a viability dye for 30 min at 37°C followed by surface marker antibodies for 30 min on ice (S3 Table), then treated with serially diluted test compounds in the medium for 30 min. […] Antibody-stained cells were analyzed immediately by flow cytometry using the Novocyte Advanteon instrument (Agilent), and the data were analyzed using FlowJo software. Fluorescence minus one (FMO) controls were used to draw gates. […]

Series [5] deals with cynomolgus monkey PBMCs. Put plainly: pSTAT5 flow cytometry in cynomolgus PBMC subsets. Format: cell-based, cynomolgus macaque. The following applies: rested cynomolgus PBMCs.
Description: as §3, §4

The subject of series [6] is rested human CD8+ T-cells. The following applies: IL-7-treated CD8+ cells, over 6 hours at 37°C; cited from earlier work. From the text: Internalization of the ternary signaling complex also depletes the local ...

Bridge positions count the residues as written; N and C are the ends. Ends that are not written are not given here.

Regarding “Ac-GWGIPWCTLDPGSLQCAWLGKHGGGGSGGVVCQDWEGVELCWQGG (disulfide 7-16, 32-41) [MDK1472]”, the half-life is 104 h in series [1] and 60 h in series [2]. In addition, the IC50 in series [3] worked out at 0.19 µM.

As to IL-7: human IL-7 cytokine (Peprotech), the “pSTAT5 response of NK cells” value in series [4] is recorded as “no pSTAT5 response”. Further, the “efficacy in cynomolgus lymphocyte subtypes” value in series [5] is recorded as “equivalent efficacy”. In addition, the “disappearance of surface IL-7Rα” value in series [6] was ~ 80%.
